Laboratory results published in patent US10676514B2, “CDCA1-derived peptide and vaccine containing same” (ONCOTHERAPY SCIENCE, INC., priority 2014, dated 2020).
Entries after “also recorded” stand apart in the source; their conditions may differ.

What was measured:
[1] = test system: COS7 cells transfected with CDCA1 and HLA-A*3303; assay: Specific CTL activity against target cells expressing CDCA1 and HLA-A*3303; format: cell-based, African green monkey; conditions: listed as CDCA1-A33-9-43
Description: A cDNA encoding the open-reading frame of a target gene or HLA-A*3303 was amplified by PCR. The PCR-amplified product was cloned into an expression vector. Either or both of the target gene-expressing vector and the HLA-A*3303-expressing vector were transfected into COS7, which is a cell line negative for the target gene and HLA, using Lipofectamine 2000 (Invitrogen) following the manufacturer's recommended protocol. Two days after transfection, the transfected cells were harvested using versene (Invitrogen), and used as the target cell for CTL activity assay (5×10^4 cells/well).
The CTL clone established against CDCA1-A33-9-43 (SEQ ID NO: 27) was investigated for its ability to recognize target cells expressing CDCA1 and the HLA-A*3303 molecule. COS7 cells transfected with both full-length CDCA1 and the HLA-A*3303 gene (a specific model of target cells expressing CDCA1 and the HLA-A*3303 gene) were prepared as the target cell. COS7 cells transfected with either full-length CDCA1 or HLA-A*3303 were prepared as the control.

[2] = test system: peptide-pulsed C1R-A33; assay: IFN-gamma ELISA of CTL lines and CTL clones (HLA-A*3303); format: cell-based, human
Protocol: (§1) CTLs were propagated in culture using methods similar to those disclosed by Riddell et al. (Walter E A et al., N Engl J Med 1995, 333(16): 1038-44; Riddell S R et al., Nat Med 1996, 2(2): 216-23). The CTLs were co-cultured in a total of 25 ml AIM-V medium containing 5% AS (AIM-V/5% AS) and 40 ng/ml anti-CD3 antibody with two types of Mitomycin C-treated human B lymphoblastoid cell lines at 5×10^6 cells/flask. One day after beginning of the culturing, 120 IU/ml IL-2 was added to the culture. On days 5, 8 and 11, a fresh AIM-V/5% AS medium containing 30 IU/ml IL-2 was added to the culture (Tanaka H et al., Br J Cancer 2001, 84(1): 94-9; Umano Y et al., Br J Cancer 2001, 84(8): 1052-7; Uchida N et al., Clin Cancer Res 2004, 10(24): 8577-86; Suda T et al., Cancer Sci 2006, 97(5): 411-9; Watanabe T et al., Cancer Sci 2005, 96(8): 498-506).
(§2) Dilution of CTLs was carried out to make 0.3, 1 and 3 cells/well in 96 round-bottomed microtiter plates (Nalge Nunc International). The CTLs were co-cultured with two types of Mitomycin C-treated human B lymphoblastoid cell lines at 1×10^4 cells/well in a total of 150 micro-l/well AIM-V/5% AS medium with 30 ng/ml anti-CD3 antibody and 125 IU/ml IL-2. Ten days later, IL-2 was added to the medium at 50 micro-l/well to reach a final concentration of 125 IU/ml. On day 14, the CTL activity was tested, and the CTL clones were propagated using the same method as described above (Uchida N et al., Clin Cancer Res 2004, 10(24): 8577-86; Suda T et al., Cancer Sci 2006, 97(5): 411-9; Watanabe T et al., Cancer Sci 2005, 96(8): 498-506).
(§3) Specifically, peptide-pulsed C1R-A33 (1×10^4 cells/well) was prepared as the stimulator cell. The induced CTLs, i.e., CTL lines and CTL clones, were used as the responder cell. The IFN-gamma ELISPOT assay and IFN-gamma ELISA were performed according to the manufacturer's manual.

[3] = test system: peptide-pulsed C1R-A33 cells; assay: IFN-gamma ELISPOT assay of peptide-induced CTLs (HLA-A*3303); format: cell-based, human; conditions: CTLs induced from HLA-A*3303-positive donors, peptide-pulsed C1R-A33 vs control
Description: (§4) Monocyte-derived dendritic cells (DCs) were used as the antigen-presenting cell to induce a cytotoxic T lymphocyte (CTL) response against peptides presented on human leukocyte antigens (HLAs). As described in the other sections, DCs were generated in vitro (Nakahara S et al., Cancer Res 2003, 63(14): 4112-8). Specifically, peripheral-blood mononuclear cells isolated from healthy volunteers (HLA-A*3303-positive) with the Ficoll-Paque plus solution (Pharmacia) were separated by attaching to plastic tissue culture dishes (Becton Dickinson) and concentrated as a monocyte fraction. The monocyte-concentrated population was cultured in the presence of 1000 IU/ml granulocyte macrophage colony-stimulating factor (R&D System) and 1000 IU/ml interleukin(IL)-4 (R&D System) in an AIM-V medium (Invitrogen) containing 2% heat-inactivated autologous serum (AS). After seven days of culturing, the cytokine-induced DCs were pulsed with 20 micro-g/ml each of the synthesized peptides in an AIM-V medium at 37 degrees C. for three hours in the presence of 3 micro-g/ml beta 2-microglobulin. The generated cells appeared to express on their cell surface DC-associated molecules such as CD80, CD83, CD86 and HLA class II (data not shown). Next, these peptide-pulsed DCs were inactivated by X-ray irradiation (20 Gy), and mixed in a 1:20 ratio with autologous CD8^+ T cells obtained by positive selection using the CD8 Positive Isolation Kit (Dynal). These culture products were seeded in a 48-well plate (Corning). Each well was made to contain 1.5×10^4 peptide-pulsed DCs, 3×10^5 CD8^+ T cells and 10 ng/ml IL-7 (R&D System) in 0.5 ml of the AIM-V/2% AS medium. Three days later, these culture products were added with a final concentration of 20 IU/ml IL-2 (CHIRON). On day 7 and day 14, T cells were further stimulated with peptide-pulsed autologous DCs. The DCs were prepared every time by the same method as above. On day 21, after the third peptide stimulation, CTLs were examined against the peptide-pulsed CIR-A33 cell by a human interferon (IFN)-gamma enzyme-linked immunospot (ELISPOT) assay (Tanaka H et al., Br J Cancer 2001, 84(1): 94-9; Umano Y et al., Br J Cancer 2001, 84(8): 1052-7; Uchida N et al., Clin Cancer Res 2004, 10(24): 8577-86; Suda T et al., Cancer Sci 2006, 97(5): 411-9; Watanabe T et al., Cancer Sci 2005, 96(8): 498-506).
as §3

[4] = test system: peptide-pulsed C1R-A03; assay: IFN-gamma ELISA of CTL lines and CTL clones (HLA-A*0301); format: cell-based, human
Protocol: as §1, §2
(§5) Specifically, peptide-pulsed C1R-A03 (1×10^4 cells/well) was prepared as the stimulator cell. The induced CTLs, i.e., CTL lines and CTL clones, were used as the responder cell. The IFN-gamma ELISPOT assay and IFN-gamma ELISA were performed according to the manufacturer's manual.

[5] = test system: peptide-pulsed C1R-A03; assay: IFN-gamma ELISPOT assay of peptide-induced CTLs (HLA-A*0301); format: cell-based, human; conditions: CTLs induced from HLA-A*0301-positive donors, peptide-pulsed C1R-A03 vs control
Description: as §4, with “(HLA-A*0301-positive)” for “(HLA-A*3303-positive)”, “C1R-A03” for “CIR-A33 cell”
as §5

[6] = test system: peptide-pulsed C1R-A11 cells; assay: IFN-gamma ELISPOT assay of peptide-induced CTLs (HLA-A*1101); format: cell-based, human; conditions: CTLs induced from HLA-A*1101-positive donors, peptide-pulsed C1R-A11 vs control, listed as CDCA1-A11-9-343
Description: as §4, with “(HLA-A*1101-positive)” for “(HLA-A*3303-positive)”, “C1R-A11 cells” for “CIR-A33 cell”
Specifically, peptide-pulsed C1R-A11 (1×10^4 cells/well) was prepared as the stimulator cell. The induced CTLs, i.e., CTL lines and CTL clones, were used as the responder cell. The IFN-gamma ELISPOT assay and IFN-gamma ELISA were performed according to the manufacturer's manual.

## EVLHMIYMR (a peptide derived from CDCA1) [SEQ ID NO: 27]
[1]; COS7 cells transfected with both CDCA1 and HLA-A*3303
  specific CTL activity of CTL clone: specific CTL activity; also recorded: potent CTL activity
[1]; COS7 cells transfected with either full-length CDCA1 or HLA-A*3303
  specific CTL activity of CTL clone against control cells: a significant specific CTL activity was not shown; also recorded: a significant specific CTL activity was not detected
[2]; CTL clones by limiting dilution, peptide-pulsed C1R-A33, listed as CDCA1-A33-9-43
  IFN-gamma production of CTL clones: Potent IFN-gamma production
[2]; CTL lines, peptide-pulsed vs non-pulsed target cells, HLA-A*3303
  IFN-gamma production of CTL lines: potent IFN-gamma production
[3]
  peptide-specific CTL activity (IFN-gamma production): potent IFN-gamma production

## KMKDTVQKLK (a peptide derived from CDCA1) [SEQ ID NO: 47]
[4]; CTL clones by limiting dilution, peptide-pulsed C1R-A03, listed as CDCA1-A03-10-257
  IFN-gamma production of CTL clones: Potent IFN-gamma production
[4]; CTL lines, peptide-pulsed vs non-pulsed target cells, HLA-A*0301
  IFN-gamma production of CTL lines: potent IFN-gamma production
[5]; listed as CDCA1-A03-10-257
  peptide-specific CTL activity (IFN-gamma production): potent IFN-gamma production; also recorded: significant specific CTL activity

## RLMIVKKEK (a peptide derived from CDCA1) [SEQ ID NO: 10]
[6]
  peptide-specific CTL activity (IFN-gamma production): potent IFN-gamma production; also recorded: significant specific CTL activity
[5]; listed as CDCA1-A03-9-343
  peptide-specific CTL activity (IFN-gamma production): no specific IFN-gamma production; also recorded: specific IFN-gamma production was not observed
